Laboratory results from PubChem BioAssay AID1259408 (Genetic Toxicology Data Bank (GENE-TOX), 2018).
Active and inactive are the calls of the source. No rule for the calls is given here.

System: GENE-TOX genotoxicity assays, various organisms and cells
Experiment: GENE-TOX mutagenicity studies
Settings: for call: Assay Type: In vivo carcinogenicity studies, Assay Code: CCG+
[1] = Species/Cell Type: Bacillus subtilis (H17 vs M45), Assay Type: Rec-assay, spot test, DNA effects (bacterial DNA repair), Assay Code: REW-, Evaluation Type: Evaluation A (Pre-1980)
[2] = Species/Cell Type: Nonhuman, Assay Type: Sister-chromatid exchange (SCE) in vitro, Assay Code: SC2+D, Dose Response: With dose response, Evaluation Type: Evaluation B (Post-1980)
[3] = Species/Cell Type: Salmonella typhimurium (one or more of the five standard strains: TA98, TA100, TA1535, TA1537, and TA1538), Assay Type: Histidine reverse gene mutation, Ames assay, Assay Code: SAL+, Evaluation Type: Evaluation A (Pre-1980)
[4] = Species/Cell Type: Salmonella typhimurium (one or more of the five standard strains: TA98, TA100, TA1535, TA1537, and TA1538), Assay Type: Histidine reverse gene mutation, Ames assay, Assay Code: SAL+*, Activation: With metabolic activation, Evaluation Type: Evaluation A (Pre-1980)
[5] = Species/Cell Type: Nonhuman, Evaluation Type: Evaluation A (Pre-1980)
[6] = Species/Cell Type: Drosophila melanogaster, Assay Type: Sex-linked recessive lethal gene mutation, Assay Code: SRL+, Evaluation Type: Evaluation A (Pre-1980)
[7] = Species/Cell Type: Salmonella typhimurium (one or more of the five standard strains: TA98, TA100, TA1535, TA1537, and TA1538), Assay Type: Histidine reverse gene mutation, Ames assay, Assay Code: SALT, Evaluation Type: Evaluation A (Pre-1980)
[8] = Species/Cell Type: Drosophila melanogaster, Assay Type: Sex-linked recessive lethal gene mutation, Assay Code: SRLT, Evaluation Type: Evaluation A (Pre-1980)
[9] = Species/Cell Type: Human lymphocytes, Assay Type: Sister-chromatid exchange (SCE) in vitro, Assay Code: SCL+D, Dose Response: With dose response, Evaluation Type: Evaluation B (Post-1980)
[10] = Species/Cell Type: Human, Assay Type: Sister-chromatid exchange (SCE) in vitro, Assay Code: SC1+D, Dose Response: With dose response, Evaluation Type: Evaluation B (Post-1980)
[11] = Species/Cell Type: Mammalian polychromatic erythrocytes, Assay Type: Micronucleus test, chromosome aberrations, Assay Code: MNTT, Evaluation Type: Evaluation A (Pre-1980)
[12] = Species/Cell Type: Salmonella typhimurium (one or more of the five standard strains: TA98, TA100, TA1535, TA1537, and TA1538), Assay Type: Histidine reverse gene mutation, Ames assay, Assay Code: SAL-, Evaluation Type: Evaluation A (Pre-1980)
[13] = Species/Cell Type: Syrian hamster embryo (SA7/SHE) cells, Assay Type: Cell transformation, viral enhanced, Assay Code: CT7+, Evaluation Type: Evaluation A (Pre-1980)
[14] = Species/Cell Type: Mammalian polychromatic erythrocytes, Assay Type: Micronucleus test, chromosome aberrations, Assay Code: MNTT, Evaluation Type: Evaluation B (Post-1980)

CC1CC2OC(/C=C/C=C/C=C/C=C/C=C/C(O)=C3\C(=O)C(C(C)C)N(C)C3=O)C(O)C2O1 (configuration not stated)
mutagenic call [1]: inactive; negative

C1O[C@@H]1[C@@H]1CO1
mutagenic call (Species/Cell Type: Arabidopsis species, Assay Type: Gene mutation, Assay Code: ARM+, Evaluation Type: Evaluation A (Pre-1980)): active; positive | mutagenic call (Species/Cell Type: Schizosaccharomyces pombe, Assay Type: Reverse gene mutation, Assay Code: YEZ+, Evaluation Type: Evaluation A (Pre-1980)): active; positive | mutagenic call (Species/Cell Type: Zea mays (corn), Assay Type: Gene mutation, Assay Code: ZEM+, Evaluation Type: Evaluation A (Pre-1980)): active; positive

O=C(NO)c1ccc2ccccc2c1
mutagenic call [2]: active; positive | mutagenic call [3]: active; positive

COc1ccc2c(c1)OC(C)(C)[C@@H](c1ccccc1)[C@@H]2c1ccc(OCCN2CCCC2)cc1
mutagenic call (Species/Cell Type: Human, Sex: Male, Assay Type: Sperm morphology, Assay Code: SPHT, Evaluation Type: Evaluation A (Pre-1980)): no conclusion

COc1cc2c(c3oc(=O)c4c(c13)CC[C@@H]4O)[C@@H]1C=CO[C@@H]1O2
mutagenic call (Species/Cell Type: Human diploid fibroblasts, Assay Type: Unscheduled DNA synthesis (UDS) in vitro, DNA effects, Assay Code: UDH+D, Dose Response: With dose response, Evaluation Type: Evaluation A (Pre-1980)): active; positive | mutagenic call [4]: active; positive

Nc1ccc(N=Nc2ccc(-c3ccc(N=Nc4c(S(=O)(=O)O)cc5c(c4N)C(=O)/C(=N/Nc4ccccc4)C(S(=O)(=O)O)=C5)cc3)cc2)c(N)c1
mutagenic call (Species/Cell Type: Drosophila melanogaster, Assay Type: Sex-linked recessive lethal gene mutation, Assay Code: SRL-, Evaluation Type: Evaluation A (Pre-1980)): inactive; negative | call [5]: active; positive

c1ccc2cc3c4c(ccc3cc2c1)CCC1OC41 (configuration not stated)
mutagenic call (Species/Cell Type: Chinese hamster lung (V79) cells, Assay Type: Forward gene mutation at the HPRT or ouabain locus, Assay Code: V79+, Evaluation Type: Evaluation A (Pre-1980)): active; positive

Nc1ncnc2c1ccn2[C@@H]1O[C@H](CO)[C@@H](O)[C@H]1O
mutagenic call (Species/Cell Type: Fischer rat embryo (RLV/1706) cells, Assay Type: Cell transformation, viral enhanced, Assay Code: CTR-, Evaluation Type: Evaluation A (Pre-1980)): inactive; negative

[Cl][Pt]([Cl])([Cl])[Cl]
mutagenic call (Species/Cell Type: Bacillus subtilis (H17 vs M45), Assay Type: Rec-assay, spot test, DNA effects (bacterial DNA repair), Assay Code: REW+, Evaluation Type: Evaluation A (Pre-1980)): active; positive | mutagenic call [6]: active; positive

C/C(O)=C1/C(=O)[C@@H]2[C@H]3c4c[nH]c5cccc(c45)C[C@H]3C(C)(C)N2C1=O
mutagenic call [7]: no conclusion

O=c1[nH]c(=O)n([C@H]2C[C@H](O)[C@@H](CO)O2)cc1I
mutagenic call (Species/Cell Type: Arabidopsis species, Assay Type: Gene mutation, Assay Code: ARM-, Evaluation Type: Evaluation A (Pre-1980)): inactive; negative | mutagenic call [8]: no conclusion | mutagenic call (Species/Cell Type: Escherichia coli polA (W3119 vs P3478), Assay Type: Rec-assay, DNA effects (bacterial DNA repair), Assay Code: RE1T, Evaluation Type: Evaluation A (Pre-1980)): no conclusion | mutagenic call (Species/Cell Type: Human diploid fibroblasts, Assay Type: Unscheduled DNA synthesis (UDS) in vitro, DNA effects, Assay Code: UDH-, Evaluation Type: Evaluation A (Pre-1980)): inactive; negative | mutagenic call [9]: active; positive | mutagenic call [10]: active; positive | mutagenic call [11]: no conclusion | mutagenic call (Species/Cell Type: Mouse, Sex: Male, Assay Type: Sperm morphology, Assay Code: SPI+, Evaluation Type: Evaluation A (Pre-1980)): active; positive | mutagenic call (Species/Cell Type: Saccharomyces cerevisiae, Assay Type: Mitotic recombination or gene conversion, Assay Code: YEH-*, Activation: With metabolic activation, Evaluation Type: Evaluation A (Pre-1980)): inactive; negative | mutagenic call [12]: inactive; negative | mutagenic call (Species/Cell Type: Salmonella typhimurium, Assay Type: Forward and reverse gene mutation, host-mediated assay, Assay Code: HMA-, Evaluation Type: Evaluation A (Pre-1980)): inactive; negative | mutagenic call [13]: active; positive | mutagenic call (Species/Cell Type: Syrian hamster embryo (SHE) cells, Assay Type: Cell transformation, clonal assay, Assay Code: CTC-, Evaluation Type: Evaluation A (Pre-1980)): inactive; negative

O=c1ccn([C@H]2C[C@H](O)[C@@H](COP(=O)(O)O)O2)c(=O)[nH]1
mutagenic call [8]: no conclusion

COCCOc1cnc(NS(=O)(=O)c2ccccc2)nc1
mutagenic call (Species/Cell Type: Nonhuman, Assay Type: Sister-chromatid exchange (SCE) in vivo, Assay Code: SC3T, Evaluation Type: Evaluation B (Post-1980)): no conclusion

COP(=O)(OC)O/C(C)=C/C(=O)N(C)C
mutagenic call [2]: active; positive | mutagenic call (Species/Cell Type: Saccharomyces cerevisiae, Assay Type: Mitotic recombination or gene conversion, Assay Code: YEC+, Evaluation Type: Evaluation A (Pre-1980)): active; positive

Nc1ncnc2n[nH]nc12
mutagenic call (Species/Cell Type: Vicia faba, Assay Type: Chromosome aberrations, Assay Code: VIC+, Evaluation Type: Evaluation A (Pre-1980)): active; positive

CC(C)Nc1cccc2c1C(=O)c1ccccc1C2=O
mutagenic call [4]: active; positive

CC(C)C(=O)Nc1ccc([N+](=O)[O-])c(C(F)(F)F)c1
mutagenic call (Species/Cell Type: Rodents, Sex: Male, Assay Type: Dominant lethal test, Assay Code: DLT-, Evaluation Type: Evaluation A (Pre-1980)): inactive; negative

CC(C)(O)C(Cl)(Cl)Cl
mutagenic call [14]: no conclusion

CN(C)c1nc(N(C)C)nc(N(C)C)n1
mutagenic call [6]: active; positive

[Cl][Fe][Cl]
mutagenic call [1]: inactive; negative | mutagenic call [13]: active; positive

CC[C@@]1(O)C[C@H](O[C@H]2C[C@H](N(C)C)[C@H](O)[C@H](C)O2)c2c(cc3c(c2O)C(=O)c2c(O)cccc2C3=O)[C@H]1C(=O)OC
mutagenic call [7]: no conclusion

O=C(Nc1ccc(Br)cc1)c1cc(Br)cc(Br)c1O
mutagenic call [14]: no conclusion

COc1cc(NO)ccc1N=Nc1ccccc1
mutagenic call [7]: no conclusion

O=P1(N2CC2)NC2CCCC3CCCC(N1)C32 (configuration not stated)
mutagenic call [6]: active; positive

COc1ccc(/C=N\NC(=O)COc2ccc(Br)cc2CN2CCCCC2)cc1
mutagenic call (Species/Cell Type: Saccharomyces cerevisiae, Assay Type: Reverse gene mutation, Assay Code: YERT, Evaluation Type: Evaluation A (Pre-1980)): no conclusion

CN(CCCC(=O)O)N=O
mutagenic call [7]: no conclusion

c1ccc(Nc2ccccc2)cc1
mutagenic call [13]: active; positive

Cc1nc(N)cc2[nH]c3ccccc3c12
mutagenic call (Species/Cell Type: Chinese hamster ovary (CHO) cells, Assay Type: Forward gene mutation at the HPRT locus, Assay Code: CHO+*, Activation: With metabolic activation, Evaluation Type: Evaluation B (Post-1980)): active; positive | mutagenic call [9]: active; positive | mutagenic call [10]: active; positive | call [5]: active; positive | mutagenic call (Species/Cell Type: Nonhuman, Assay Type: Sister-chromatid exchange (SCE) in vitro, Assay Code: SC2+D*, Activation: With metabolic activation, Dose Response: With dose response, Evaluation Type: Evaluation B (Post-1980)): active; positive | mutagenic call (Species/Cell Type: Nonhuman, Assay Type: Sister-chromatid exchange (SCE) in vivo, Assay Code: SC3+D, Dose Response: With dose response, Evaluation Type: Evaluation B (Post-1980)): active; positive | mutagenic call [4]: active; positive

O=P1(N(CCCl)CCCl)NC(OO)CCO1 (configuration not stated)
mutagenic call [9]: active; positive | mutagenic call [10]: active; positive

CN(N=O)C(=O)Nc1ccc(Br)cc1
mutagenic call [2]: active; positive

C#CC(OC(=O)NC1CCCCC1)(c1ccccc1)c1ccc(C)c(C)c1 (configuration not stated)
mutagenic call (Species/Cell Type: Human diploid fibroblasts, Assay Type: Unscheduled DNA synthesis (UDS) in vitro, DNA effects, Assay Code: UDH+, Evaluation Type: Evaluation A (Pre-1980)): active; positive | mutagenic call [3]: active; positive

CCCCCc1cc(O)cc(O)c1
mutagenic call (Species/Cell Type: Human lymphocytes, Assay Type: Micronucleus test in vitro, chromosome aberrations, Assay Code: MN7+, Evaluation Type: Evaluation A (Pre-1980)): active; positive

OC[C@H]1O[C@@](CO)(O[C@H]2O[C@H](CO)[C@@H](O)[C@H](O)[C@H]2O)[C@@H](O)[C@@H]1O
mutagenic call [11]: no conclusion | mutagenic call (Species/Cell Type: Nonhuman, Assay Type: Sister-chromatid exchange (SCE) in vitro, Assay Code: SC2T, Evaluation Type: Evaluation B (Post-1980)): no conclusion

C1=Cc2c(ccc3c2ccc2ccccc23)C1
mutagenic call [4]: active; positive

O=C1OC(=O)c2c(Br)c(Br)c(Br)c(Br)c21
mutagenic call [12]: inactive; negative

O=C(C#Cc1ccc([N+](=O)[O-])o1)NC1CCCCC1
mutagenic call (Species/Cell Type: Neurospora crassa, Assay Type: Forward gene mutation, Assay Code: NEF-, Evaluation Type: Evaluation A (Pre-1980)): inactive; negative

Cc1ccc(N=Nc2c(O)c(C(=O)O)cc3ccccc23)c(S(=O)(=O)O)c1
mutagenic call [7]: no conclusion

CC(S)C(=O)NCC(=O)O (configuration not stated)
mutagenic call [14]: no conclusion
